Test results taken from ChEMBL document CHEMBL1795236, “Design and synthesis of protein-protein interaction mimics as Plasmodium falciparum cysteine protease, falcipain-2 inhibitors” (Eur J Med Chem, 2011).
Calls of active or inactive are those of the source. The calls are words filed in the database; no cut-off is given here. Peptide text beside a SMILES is read from it.

How the values were obtained:
Plasmodium falciparum [1] = assay: (§1) Inhibition of Plasmodium falciparum recombinant refolded falcipain 2 activity using ZFR-AMC as a substrate after 30 mins by fluorimetric assay
Plasmodium falciparum [2] = assay: Inhibition of Plasmodium falciparum recombinant falcipain 2 using fluorogenic ZFR-AMC substrate at 5 uM after 30 mins by fluorimetric assay
Plasmodium falciparum [3] = assay: Antimalarial activity against Plasmodium falciparum infected in human RBC assessed as swollen food vacuole at early trophozoite stage at 200 nM after 48 hrs by Giemsa staining based microscopy; type: functional, organism-based
Plasmodium falciparum [4] = assay: Antimalarial activity against Plasmodium falciparum infected in human RBC assessed as abnormal schizonts at 200 nM after 48 hrs by Giemsa staining based microscopy; type: functional, organism-based
Plasmodium falciparum [5] = assay: Antimalarial activity against Plasmodium falciparum infected in human RBC assessed as clumps of malarial pigment at 200 nM after 48 hrs by Giemsa staining based microscopy; type: functional, organism-based
[6] = as §1

| Compound | inhibition (Plasmodium falciparum [1]) | inhibition (Plasmodium falciparum [2]) | Activity (Plasmodium falciparum [3]) | Activity (Plasmodium falciparum [4]) | Activity (Plasmodium falciparum [5]) | Ki [6] |
| --- | --- | --- | --- | --- | --- | --- |
| CC[C@H](C)[C@H](NC(=O)CNC(=O)[C@H](CO)NC(=O)[C@@H](NC(=O)[C@H](CC(C)C)NC(=O)[C@H](CCC(N)=O)NC(=O)[C@@H]1CSSC[C@H](NC(=O)[C@@H]2CCCN2C(=O)[C@H](C)NC(=O)CNC(=O)[C@H](CC(C)C)NC(=O)[C@H](CC(C)C)NC(=O)[C@@H](N)CCCNC(=N)N)C(=O)NCCCC(=O)N1)C(C)C)C(=O)NCCC(=O)NCCC(=O)N1CCC[C@H]1C(=O)N[C@@H](Cc1c[nH]c2ccccc12)C(N)=O (HELM PEPTIDE1{R.L.L.G.A.P.C.[O=C(CCCN[*:1])[*:2]].C.Q.L.V.S.G.I.[bAla].[bAla].P.W.[am]}$PEPTIDE1,PEPTIDE1,7:R3-9:R3$$$V2.0) |  | 39% |  |  |  |  |
| CC[C@H](C)[C@H](NC(=O)CNC(=O)[C@H](CO)NC(=O)[C@@H](NC(=O)[C@H](CC(C)C)NC(=O)[C@H](CCC(N)=O)NC(=O)[C@H](CCCNC(=N)N)NC(=O)[C@H]1CC[C@@H](NC(=O)[C@@H](NC(=O)[C@@H]2CCCN2C(=O)[C@H](C)NC(=O)CNC(=O)[C@H](CC(C)C)NC(=O)[C@H](CC(C)C)NC(=O)[C@@H](N)CCCNC(=N)N)C(C)C)CC1)C(C)C)C(N)=O (HELM PEPTIDE1{R.L.L.G.A.P.V.[O=C([C@H]1CC[C@@H](N[*:1])CC1)[*:2]].R.Q.L.V.S.G.I.[am]}$$$$V2.0) |  | 63% | Active | Active | Active | 2000 nM |
| CC[C@H](C)[C@H](NC(=O)CNC(=O)[C@H](CO)NC(=O)[C@@H](NC(=O)[C@H](CC(C)C)NC(=O)[C@H](CCC(N)=O)NC(=O)[C@H](CCCNC(=N)N)NC(=O)[C@H]1CC[C@@H](NC(=O)[C@@H](NC(=O)[C@@H]2CCCN2C(=O)[C@H](C)NC(=O)CNC(=O)[C@H](CC(C)C)NC(=O)[C@H](CC(C)C)NC(=O)[C@@H](N)CCCNC(=N)N)C(C)C)CC1)C(C)C)C(=O)NCCC(=O)NCCC(=O)N1CCC[C@H]1C(=O)N[C@@H](Cc1c[nH]c2ccccc12)C(N)=O (HELM PEPTIDE1{R.L.L.G.A.P.V.[O=C([C@H]1CC[C@@H](N[*:1])CC1)[*:2]].R.Q.L.V.S.G.I.[bAla].[bAla].P.W.[am]}$$$$V2.0) |  | 60% | Active | Active | Active | 2500 nM |
| CC[C@H](C)[C@H](NC(=O)CNC(=O)[C@H](CO)NC(=O)[C@@H](NC(=O)[C@H](CC(C)C)NC(=O)[C@H](CCC(N)=O)NC(=O)CCCNC(=O)[C@@H]1CCCN1C(=O)[C@H](C)NC(=O)CNC(=O)[C@H](CC(C)C)NC(=O)[C@H](CC(C)C)NC(=O)[C@@H](N)CCCNC(=N)N)C(C)C)C(N)=O (HELM PEPTIDE1{R.L.L.G.A.P.[O=C(CCCN[*:1])[*:2]].Q.L.V.S.G.I.[am]}$$$$V2.0) |  | 44% | Active | Active | Active |  |
| CC[C@H](C)[C@H](NC(=O)CNC(=O)[C@H](CO)NC(=O)[C@@H](NC(=O)[C@H](CC(C)C)NC(=O)[C@H](CCC(N)=O)NC(=O)[C@H]1CC[C@@H](NC(=O)[C@@H]2CCCN2C(=O)[C@H](C)NC(=O)CNC(=O)[C@H](CC(C)C)NC(=O)[C@H](CC(C)C)NC(=O)[C@@H](N)CCCNC(=N)N)CC1)C(C)C)C(N)=O (HELM PEPTIDE1{R.L.L.G.A.P.[O=C([C@H]1CC[C@@H](N[*:1])CC1)[*:2]].Q.L.V.S.G.I.[am]}$$$$V2.0) |  | 50% | Active | Active | Active |  |
| CC[C@H](C)[C@H](NC(=O)CNC(=O)[C@H](CO)NC(=O)[C@@H](NC(=O)[C@H](CC(C)C)NC(=O)[C@H](CCC(N)=O)NC(=O)[C@H]1CC[C@@H](NC(=O)[C@@H]2CCCN2C(=O)[C@H](C)NC(=O)CNC(=O)[C@H](CC(C)C)NC(=O)[C@H](CC(C)C)NC(=O)[C@@H](N)CCCNC(=N)N)CC1)C(C)C)C(=O)NCCC(=O)NCCC(=O)N1CCC[C@H]1C(=O)N[C@@H](Cc1c[nH]c2ccccc12)C(N)=O (HELM PEPTIDE1{R.L.L.G.A.P.[O=C([C@H]1CC[C@@H](N[*:1])CC1)[*:2]].Q.L.V.S.G.I.[bAla].[bAla].P.W.[am]}$$$$V2.0) |  | 57% | Active | Active | Active |  |
| Ac-RQLVSGI-NH2 |  | 10% |  |  |  |  |

The next lines start with results.

| inhibition (Plasmodium falciparum [1]) | inhibition (Plasmodium falciparum [2]) | Compound | Activity (Plasmodium falciparum [3]) | Activity (Plasmodium falciparum [4]) | Activity (Plasmodium falciparum [5]) | Ki [6] |
| --- | --- | --- | --- | --- | --- | --- |
| Active |  | CC(=O)N[C@@H](CC(C)C)C(=O)N[C@@H](CC(C)C)C(=O)N[C@H](C=O)CCCNC(=N)N |  |  |  |  |
| Active |  | CC(C)C[C@H](NC(=O)[C@H]1O[C@@H]1C(=O)O)C(=O)NCCCCN=C(N)N |  |  |  |  |
|  | 39% | CC[C@H](C)[C@H](NC(=O)CNC(=O)[C@H](CO)NC(=O)[C@@H](NC(=O)[C@H](CC(C)C)NC(=O)[C@@H]1CSSC[C@H](NC(=O)[C@H](C)NC(=O)CNC(=O)[C@H](CC(C)C)NC(=O)[C@H](CC(C)C)NC(=O)[C@@H](N)CCCNC(=N)N)C(=O)NCCCC(=O)N1)C(C)C)C(N)=O (HELM PEPTIDE1{R.L.L.G.A.C.[O=C(CCCN[*:1])[*:2]].C.L.V.S.G.I.[am]}$PEPTIDE1,PEPTIDE1,6:R3-8:R3$$$V2.0) |  |  |  |  |
|  | 39% | CC[C@H](C)[C@H](NC(=O)CNC(=O)[C@H](CO)NC(=O)[C@@H](NC(=O)[C@H](CC(C)C)NC(=O)[C@H](CCC(N)=O)NC(=O)[C@@H]1CSSC[C@H](NC(=O)[C@@H]2CCCN2C(=O)[C@H](C)NC(=O)CNC(=O)[C@H](CC(C)C)NC(=O)[C@H](CC(C)C)NC(=O)[C@@H](N)CCCNC(=N)N)C(=O)NCCCC(=O)N1)C(C)C)C(N)=O (HELM PEPTIDE1{R.L.L.G.A.P.C.[O=C(CCCN[*:1])[*:2]].C.Q.L.V.S.G.I.[am]}$PEPTIDE1,PEPTIDE1,7:R3-9:R3$$$V2.0) |  |  |  |  |
|  | 57% | CC[C@H](C)[C@H](NC(=O)CNC(=O)[C@H](CO)NC(=O)[C@@H](NC(=O)[C@H](CC(C)C)NC(=O)[C@H](CCC(N)=O)NC(=O)[C@H](CCCNC(=N)N)NC(=O)CCCNC(=O)[C@@H](NC(=O)[C@@H]1CCCN1C(=O)[C@H](C)NC(=O)CNC(=O)[C@H](CC(C)C)NC(=O)[C@H](CC(C)C)NC(=O)[C@@H](N)CCCNC(=N)N)C(C)C)C(C)C)C(N)=O (HELM PEPTIDE1{R.L.L.G.A.P.V.[O=C(CCCN[*:1])[*:2]].R.Q.L.V.S.G.I.[am]}$$$$V2.0) | Active | Active | Active | 2500 nM |
|  | 49% | CC[C@H](C)[C@H](NC(=O)CNC(=O)[C@H](CO)NC(=O)[C@@H](NC(=O)[C@H](CC(C)C)NC(=O)[C@H](CCC(N)=O)NC(=O)[C@H](CCCNC(=N)N)NC(=O)CCCNC(=O)[C@@H](NC(=O)[C@@H]1CCCN1C(=O)[C@H](C)NC(=O)CNC(=O)[C@H](CC(C)C)NC(=O)[C@H](CC(C)C)NC(=O)[C@@H](N)CCCNC(=N)N)C(C)C)C(C)C)C(=O)NCCC(=O)NCCC(=O)N1CCC[C@H]1C(=O)N[C@@H](Cc1c[nH]c2ccccc12)C(N)=O (HELM PEPTIDE1{R.L.L.G.A.P.V.[O=C(CCCN[*:1])[*:2]].R.Q.L.V.S.G.I.[bAla].[bAla].P.W.[am]}$$$$V2.0) | Active | Active | Active |  |
|  | 32% | CC[C@H](C)[C@H](NC(=O)CNC(=O)[C@H](CO)NC(=O)[C@@H](NC(=O)[C@H](CC(C)C)NC(=O)[C@H](CCC(N)=O)NC(=O)CCCNC(=O)[C@@H]1CCCN1C(=O)[C@H](C)NC(=O)CNC(=O)[C@H](CC(C)C)NC(=O)[C@H](CC(C)C)NC(=O)[C@@H](N)CCCNC(=N)N)C(C)C)C(=O)NCCC(=O)NCCC(=O)N1CCC[C@H]1C(=O)N[C@@H](Cc1c[nH]c2ccccc12)C(N)=O (HELM PEPTIDE1{R.L.L.G.A.P.[O=C(CCCN[*:1])[*:2]].Q.L.V.S.G.I.[bAla].[bAla].P.W.[am]}$$$$V2.0) |  |  |  |  |
|  | 5% | H-RLLGAPV-NH2 | Active | Active | Active |  |
